Experimental data reported in patent US9883675B2, “Method for controlling pests” (SUMITOMO CHEMICAL COMPANY, LIMITED, priority 2013, dated 2018).

System: Diamondback moth (Plutella xylostella)
Test: Test Example 1: Japanese radish seed treatment, mortality of Diamondback moth larvae
Format: in vivo
Conditions: 48 h, Diamondback moth third instar larvae released 4 days after seeding, observed 2 days after release, average of two replications
Protocol: Each of the present fused heterocyclic compounds 3, 4, 5, 9, 15, 16, 17, 18, 19, 20, 22, 25, 72, 74, 85, 130, 399, 409, 414, 419, 443, 444, 445, 464 and 467 was dissolved in acetone (available from Wako Pure Chemical Industries, Ltd.) containing 5% (W/V) SOLGEN TW-20 (available from Daiichi-Kogyo Seiyaku Co. Ltd.) so as to give a prescribed concentration, and to prepare the testing solution.
Nine (9) grains of the Japanese raddish (Raphanus sativas var. longipinnatus) were placed in a 2 ml volume polypropylene microtube (manufactured by As One Co.) and thereto was added 18 μl of the above testing solution and the seeds in the microtube were shaken and stirred on Stirrer (Trade name: VORTEX-GENIE2, manufactured by Scientific Industries, Inc.). After the testing solution was spread uniformly to the whole seed, the seeds were allowed to air dry.
To a 90 ml volume of plastic cup filled with ten (10) g of culture soil (Trade name: Aisai No. 1; available from Katakura Chikkarin Co., Ltd.) was added water (5 ml) and thereto was seeded three (3) grains of the above seeds.
At four days after the seeding, Diamondback moth (Plutella xylostella) at the third instar larval stages were released in a ratio of 10 (ten) heads of insects per the cup, and then the cups were covered with nylon gauze and covered with a lid (hereinafter, referred to as “treated group”).
On the other hand, Japanese raddish was seeded by the similar procedures to the treated group except that the present fused heterocyclic compound was not dissolved in acetone (available from Wako Pure Chemical Industries, Ltd.) containing 5% (W/V) SOLGEN TW-20 (available from Daiichi-Kogyo Seiyaku Co. Ltd.), and the larvae were released, and the cups were covered with a lid (hereinafter, referred to as “Untreated group”).
At two days after the release, the surviving and death of the larvae were observed and on basis of the results of the observation, the mortalities of both groups were calculated by the following equation 1), respectively. Two replication tests were performed on each group. The average value is shown below. Mortality (%)=(Total number of […])/Total number of Tested insects×100 Equation 1)

For `CCS(=O)(=O)c1cccnc1-c1nc2cc(SC(F)(F)F)cnc2n1C` [Present fused heterocyclic compound 15, 2-(3-ethylsulfonyl-pyridin-2-yl)-3-methyl-6-trifluoromethylsulfanyl-3H-imidazo[4,5-b]pyridine], which mortality at 0.01 mg (dose 0.01 mg/1 grain of seed) is on record?
Its mortality at 0.01 mg is 100%.

And the mortality at 0.2 mg (dose 0.2 mg/1 grain of seed)?
Its mortality at 0.2 mg is 100%.
